Reference: patent US20150223463A1, “SPIROCYCLIC ISOXAZOLINE DERIVATIVES FOR TREATMENT OF SEA LICE” (Zoetis LLC, priority 2012, published 2015)

System: Lepeophtheirus salmonis (sea lice)
Experiment: Sea lice bioassay, 24 hours exposure to test compound
Assay type: in vivo
Settings: predominantly pre-adult and adult stage, generally chemical resistant strain

CS(=O)(=O)CC(=O)N1CC2(C1)OCc1cc(C3=NOC(c4cc(Cl)c(F)c(Cl)c4)(C(F)(F)F)C3)ccc12 (centres unmarked) [Example 1]
Adult Females (EC50) (adult female sea lice): 0.13 ppb | Adult Males (EC50) (adult male sea lice): 0.08 ppb
